Molecules are shown by their SMILES. Several values for one entry are separate records, joined by “and”; a condition that tells them apart may be missing. Identical values can stand only once. Bounds are passed on as bounds.

This experiment deals with 695427-040-R-J1-PDC complex spheroids, viability percent T/C. The experiment in a line: Anticancer human tumor 695427-040-R-J1-PDC patient-derived colon adenocarcinoma cell line growth inhibition [GQUAD]. Particulars: for viability, T/C: stronger effect = lower value. An excerpt: DNA G-quadruplex Stabilizer Agents in Combinations in Complex Spheroids
A high-throughput screen of multi-cell type tumor spheroids was designed to identify active combinations of DNA G-quadruplex stabilizer agents and targeted small molecules. Complex spheroids include a stromal component modeled by human endothelial cells (HUVEC) and fibroblasts modeled by human mesenchymal stem cells (MSCs). The concentration ranges selected for each drug and investigational agent were based upon clinically achievable concentrations if the clinical Cmax of the agent was known.
Compounds. The drugs and investigational agents: pidnarulex (CX-5461; NSC782164), APTO-253 (NSC789042), BRACO-19 (NSC847499), peposertib (NSC802822), ceralasertib (NSC780249), elimusertib (NSC800525), camonsertib (NSC841442), AZD-1390 (NSC803789), olaparib (NSC753686), talazoparib (NSC767125), ART-558 (NSC835418), sotorasib (NSC818433), MRTX-1133 (NSC836407), SN-38 (NSC673596), topotecan (NSC609699), etoposide (NSC141540), doxorubicin (NSC123127), gemcitabine (NSC613327), 5-fluorouracil (NSC19893), paclitaxel (NSC125973), vemurafenib (NSC761431), panobinostat (NSC761190), R-306465 (JNJ-16241199; NSC773264), adavosertib (NSC754352), TP-3654 (NSC805149), carboplatin (NSC241240), KSQ-4279 (NSC840948), and staurosporine (NSC755774) were obtained from the National Cancer Institute (NCI) Developmental Therapeutics Program Chemical Repository (34). The FDA-approved anticancer drug set is available from the NCI Developmental Therapeutics Program. […] The stock solutions were prepared in dimethyl sulfoxide (DMSO, Sigma-Aldrich, St. Louis, MO, cat. D2650) at 800-fold the tested concentration and stored at -70 degrees C prior to their use. All drugs and investigational agents were tested over a range starting from a high concentration at or near the clinical Cmax and decreasing in half-log increments. If the clinical Cmax for an agent had not been determined, the highest concentration tested was 10 microM.
2.3 Cell Culture. All cells were maintained in an incubator at 37 degrees C and 5% CO2 with 95% humidity. The PDC lines were cultured according to standard operating procedures established by the NCI PDMR. All PDCs were thawed and cultured in Matrigel-coated flasks prepared with a working solution of 1X Ham's F-12 nutrient mix, without supplementation (Invitrogen, cat. 11765054), 100 U/mL penicillin-streptomycin (Invitrogen, cat. 15140122), and 2.5% Matrigel (Corning Inc., cat. 354248) for the first three passages. The 857933-349-R-J2-PDC line was cultured in 6C/Colon 1B media, which includes advanced DMEM/F-12 (Thermo Fisher Scientific, cat. 12634028), 10 mM HEPES (Thermo Fisher Scientific, cat. 15630080), 1X GlutaMAX supplement (Thermo Fisher Scientific, cat. 35050061), 0.1 mg/mL primocin (InvivoGen, cat. ant-pm-2), 10% defined fetal bovine serum, heat inactivated (HyClone Laboratories Inc., cat. SH30070.03HI), 50% L-WRN conditioned media (ATCC, cat. CRL-3276), 1.25 mM N-Acetyl-L-cysteine (Sigma-Aldrich, cat. A9165), 10 mM nicotinamide (Sigma-Aldrich, cat. N0636), 1X B-27 supplement (Thermo Fisher Scientific, cat. 17504044), 1X N-2 supplement (Thermo Fisher Scientific, cat. 17502048), 10 microM Y-27632 dihydrochloride (Tocris Bioscience, cat. 1254), and 50 ng/mL human EGF recombinant protein (Thermo Fisher Scientific, cat. PHG0311). The 485176-168-R4-J1-PDC line was cultured in Panc media, which includes all 6C/Colon 1B media components plus 100 ng/mL human FGF-10 (Thermo Fisher Scientific, cat. 100-26), 500 nM SB-431542 (Selleckchem, cat. S1067), and gastrin (Tocris, cat. 3006).
[…]
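Further: spheroids exposed to compounds for seven days before readout.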

On to `CC(C)n1c(=O)n(C)c2cnc3cc(F)c(-c4ccc(OCCCN5CCCCC5)nc4)cc3c21`, for which the viability, T/C by setting is: (compound 0.0316 µM) 97.4% and 115% and 95.5%; (compound 0.1 µM) 102% and 97.8% and 101%; (compound 0.316 µM) 110% and 102% and 97.8%; (compound 1 µM) 118% and 115% and 110%; (compound 3.16 µM) 74% and 109% and 84.6%; (compound 10 µM) 57.9% and 69.9% and 56.8%. Moreover, the IC50 (curve of compound) is more than 10000 nM.

With `CC1COCCN1c1cc(-c2ccnn2C)c2ccnc(-c3ccn[nH]3)c2n1` (stereo not drawn), the viability, T/C reads like this: (compound 0.0316 µM) 88.2% and 92.1% and 81.5%; (compound 0.1 µM) 71.7% and 79.9% and 54.3%; (compound 0.316 µM) 50.6% and 61.6% and 45.6%; (compound 1 µM) 34.4% and 49.4% and 35.4%; (compound 3.16 µM) 27.7% and 46.1% and 23%; (compound 10 µM) 26.8% and 40.4% and 24.8%. Further, for the setting “curve of compound”, the half-inhibitory concentration (IC50) is 318 nM and 979 nM and 181 nM.

On to `CC1COCCN1c1cc(C2(O)CC3CCC(C2)O3)c2cnn(-c3ccn[nH]3)c2n1` (stereo not drawn), for which the viability, T/C is 79.3% and 91.3% and 95% (compound 0.0316 µM); 66.4% and 78.3% and 88.3% (compound 0.1 µM); 54.6% and 68.4% and 73.6% (compound 0.316 µM); 41.1% and 52% and 56.7% (compound 1 µM); 23.6% and 30.7% and 47.5% (compound 3.16 µM); 20% and 23.6% and 36.8% (compound 10 µM). The IC50 (curve of compound) was 431 nM and 993 nM and 2090 nM.

For the compound `CC1COCCN1c1cc(C2(S(C)(=N)=O)CC2)nc(-c2ccnc3[nH]ccc23)n1` (stereo not drawn), the viability, T/C is, setting by setting: (compound 0.0316 µM) 98.2% and 95.8% and 104%; (compound 0.1 µM) 80.6% and 102% and 90.9%; (compound 0.316 µM) 82% and 94.1% and 92.3%; (compound 1 µM) 85.7% and 94.6% and 87.3%; (compound 3.16 µM) 59.1% and 88.3% and 68.5%; (compound 10 µM) 55.5% and 73.5% and 54.2%. In addition, the IC50 (curve of compound) is more than 10000 nM.

In the case of `CC[C@@]1(O)C(=O)OCc2c1cc1n(c2=O)Cc2cc3c(CN(C)C)c(O)ccc3nc2-1`, the viability, T/C was 93.2% and 113% and 101% (compound 0.000999 µM); 97.2% and 103% and 94.8% (compound 0.00316 µM); 109% and 96.7% and 103% (compound 0.00999 µM); 93.2% and 102% and 89.2% (compound 0.0316 µM); 81.3% and 103% and 88.3% (compound 0.0999 µM); 82.7% and 90.3% and 80.3% (compound 0.316 µM). Besides, the IC50 (curve of compound) was more than 316 nM.

As to `CCc1c2c(nc3ccc(O)cc13)-c1cc3c(c(=O)n1C2)COC(=O)[C@]3(O)CC`, the viability, T/C (compound 0.000999 µM) is 94.6% and 102% and 82.8%; the viability, T/C (compound 0.00316 µM) is 74.4% and 96.6% and 88.9%; the viability, T/C (compound 0.00999 µM) was 82.1% and 85% and 83.3%; the viability, T/C (compound 0.0316 µM) was 73.2% and 80.9% and 61%; the viability, T/C (compound 0.0999 µM) was 54.9% and 68.1% and 33.5%; the viability, T/C (compound 0.316 µM) is 41.9% and 54.7% and 34.1%. The IC50 (curve of compound) is 175 nM and > 316 nM and 50.7 nM.

Take `CN(C)c1ccc(Nc2c3ccc(NC(=O)CCN4CCCC4)cc3nc3cc(NC(=O)CCN4CCCC4)ccc23)cc1`: the viability, T/C runs as follows: (compound 0.0316 µM) 104% [middle of 12 runs]; (compound 0.1 µM) 102% [middle of 12 runs]; (compound 0.316 µM) 104% [middle of 12 runs]; (compound 1 µM) 99.1% [middle of 12 runs]; (compound 3.16 µM) 103% [middle of 12 runs]; (compound 10 µM) 92.2% [middle of 12 runs]. Moreover, the IC50 (compound alone, run of 04/22/2024) is more than 10000 nM.

`COc1ccc([C@@H](O)c2cc(-c3ncnc4cc(N5CCOCC5)ccc34)c(F)cc2Cl)nn1`: the viability, T/C reads like this: (compound 0.0316 µM) 91.1% and 96.7% and 94.1%; (compound 0.1 µM) 79.7% and 91.7% and 86.8%; (compound 0.316 µM) 101% and 91.6% and 95.4%; (compound 1 µM) 70.5% and 92% and 82.2%; (compound 3.16 µM) 69% and 67.2% and 61%; (compound 10 µM) 50.5% and 51% and 46%. Also, the half-maximal inhibitory concentration (IC50) (curve of compound) is > 10000 nM and 7330 nM.

In the case of `Cc1[nH]c2ccccc2c1CCNCc1ccc(/C=C/C(=O)NO)cc1`, the viability, T/C (compound 0.000999 µM) was 98.8% and 112% and 98%; the viability, T/C (compound 0.00316 µM) is 103% and 100% and 96.8%; the viability, T/C (compound 0.00999 µM) is 98.5% and 103% and 99.5%; the viability, T/C (compound 0.0316 µM) was 98.7% and 110% and 101%; the viability, T/C (compound 0.0999 µM) was 96.6% and 93.8% and 94.2%; the viability, T/C (compound 0.316 µM) is 89.6% and 68% and 71.7%. The IC50 (curve of compound) was more than 316 nM.

As to `Cc1cnc(CNC(=O)c2c(=O)c3ccc(N4CCCN(C)CC4)nc3n3c2sc2ccccc23)cn1`, the viability, T/C reads like this: (compound 0.0316 µM) 95.8% [middle of 12 runs]; (compound 0.1 µM) 91.6% [middle of 12 runs]; (compound 0.316 µM) 85.3% [middle of 12 runs]; (compound 1 µM) 76.2% [middle of 12 runs]; (compound 3.16 µM) 58% [middle of 12 runs]; (compound 10 µM) 44.7% [middle of 12 runs].

Turning to `Cn1ncnc1[C@H]1c2n[nH]c(=O)c3cc(F)cc(c23)N[C@@H]1c1ccc(F)cc1`, the viability, T/C (compound 0.000999 µM) is 93.3% and 88.5% and 90.8%; the viability, T/C (compound 0.00316 µM) is 80.2% and 90.7% and 85.4%; the viability, T/C (compound 0.00999 µM) is 88.3% and 95.7% and 109%; the viability, T/C (compound 0.0316 µM) was 108% and 98.7% and 87.9%; the viability, T/C (compound 0.0999 µM) is 99.3% and 102% and 82.7%; the viability, T/C (compound 0.316 µM) was 69.6% and 93.1% and 74.3%. Further, the half-inhibitory concentration (IC50) (curve of compound) was more than 316 nM.

In the case of `O=C(c1cc(Cc2n[nH]c(=O)c3ccccc23)ccc1F)N1CCN(C(=O)C2CC2)CC1`, the viability, T/C (compound 0.0316 µM) is 84.8% and 115% and 98.4%; the viability, T/C (compound 0.1 µM) was 94.2% and 98.6% and 103%; the viability, T/C (compound 0.316 µM) is 93.2% and 99.7% and 95.8%; the viability, T/C (compound 1 µM) is 99.4% and 97.6% and 92.7%; the viability, T/C (compound 3.16 µM) is 72.7% and 105% and 88.9%; the viability, T/C (compound 10 µM) is 88% and 93.6% and 77.6%. Also, the IC50 (curve of compound) was more than 10000 nM.

What is called viability, T/C is the ratio of treated to control. In general, IC50 refers to the concentration at which inhibition is half-maximal.

Source of the values: PubChem BioAssay AID2060492 (Molecular Pharmacology Branch, DTP, NCI, 2025).
